Patent US20240336591A1, “ORGANIC PYRIDINE-PYRAZOLE COMPOUNDS AND THEIR USES” (priority 2021, published 2024)
Read-outs that look alike come from different tables or passages of the source.

Tests used:
Human PDE10A2 [1] = biological target: T1, Human PDE10A2 (Homo sapiens (Human), UniProt Q9Y233); assay: Biochemical human PDE10A activity assay - PDE10A2 Phosphate Sensor Assay; conditions: cGMP 3 μM substrate, PDE10A2 0.25 nM
Method: Biochemical Human PDE10A Activity Assay—PDE10A2 Phosphate Sensor Assay
Semi Log compound dilutions starting at a final concentration of 50 μM were dispensed into a black 384 well plate alongside, DMSO and an Inhibited control using the Echo Acoustic dispenser. […] Data was analysed using a 4-parameter fit.

Human PDE10A2 [2] = biological target: T1, Human PDE10A2; assay: Cell based human PDE10A activity assay - cAMP HTRF assay in HEK 293 rhPDE10A2 cell line
Method: Semi log compound dilutions starting at a final concentration of 10 μM were dispensed into a white 384 well plate, alongside DMSO and an Inhibited control using the Tecan D300e digital dispenser. HEK 293 cells overexpressing recombinant human PDE10A2 were seeded on top of the compounds at 2500 cells/well in a volume 5 μL/well. The plate was incubated at room temperature for 60 minutes. To induce endogenous cAMP, 5 μL/well of Forskolin at a final assay concentration of 10 μM was added to the plate. The plate was incubated at room temperature for a further 45 minutes. cAMP HTRF detection reagents were added, and the plate was incubated for 60 minutes at room temperature. […] Data was analysed using a 4-parameter fit.

[3] = Determination of CNS penetration in vivo (brain to plasma partitioning, Kpuu); set-up: species or system Male Sprague Dawley Rats; conditions: male, Sprague-Dawley, brain / plasma (unbound); rat, IV, 1 mg/kg, 10-30 min post dose
[4] = system: inflamed colonic mucosa from ulcerative colitis patients; assay: Ex-vivo colon biopsy culture from ulcerative colitis patients, cytokine release (Protocol 1); format: cell-based, human; conditions: 100 nM; UC donor 3; vs vehicle control
Method: The effect of selective PDE10A inhibition was tested on inflamed colonic mucosa from ulcerative colitis patients taken during routine endoscopy (Protocol 1 detailed below). These samples retain a disease phenotype in ex-vivo culture, secrete high basal levels of inflammatory cytokines, and represent a highly relevant and translational disease model. The effect of the PDE10A inhibitors on levels of the inflammatory cytokines IL-6 and IL-8 released from these tissue samples were measured. Both IL-6 and IL-8 are key regulators in ulcerative colitis pathology and their levels correlate with disease severity (Waldner M J et al. Master regulator of intestinal disease: IL-6 in chronic inflammation and cancer development. Semin Immunol. 26(1), 75-9 (2014); Bernardo D et al. IL-6 promotes immune responses in human ulcerative colitis and induces a skin-homing phenotype in the dendritic cells and T-cells they stimulate. Eur J Immunol. 42(5), 1337-53 (2012); Pearl D S, Cytokine mucosal expression in ulcerative colitis, the relationship between cytokine release and disease activity. J Crohns Colitis. 7(6), 481-9 (2013)).
These colon biopsies retain an inflammatory phenotype and secrete high levels of inflammatory cytokines in ex-vivo culture.
Biopsy tissue was obtained from inflamed colonic mucosa from ulcerative colitis or Crohn's disease patients during routine endoscopy. Ex-vivo biopsy cultures for the analysis of inflammatory cytokine biomarkers were run as previously described (Vossenkämper A. et al. A CD3- specific antibody reduces cytokine production and alters phosphoprotein profiles in intestinal tissues from patients with inflammatory bowel disease. Gastroenterology, 147, 172-183 (2014)). Biopsies were incubated in organ culture for 24 h with the addition of positive control compounds, or specific PDE10A inhibitors. Supernatants collected at the end of the experiment were snap-frozen and stored at −70° C. For the measurement of cytokines, the frozen culture supernatants were thawed and analysed for levels of the inflammatory cytokines using Luminex cytokine assay kits (R&D Systems) and an R&D Systems MAGPIX® analyser. Mean values ±SDs were calculated for the levels of spontaneous cytokine production measured in biopsy culture supernatants from each treatment group.

[5] = Forskolin 10 μM, read-out: cAMP HTRF Assay in HEK 293 rhPDE10A2 cell line (pIC50) (converted)

T1 sequence (Q9Y233 267-1055): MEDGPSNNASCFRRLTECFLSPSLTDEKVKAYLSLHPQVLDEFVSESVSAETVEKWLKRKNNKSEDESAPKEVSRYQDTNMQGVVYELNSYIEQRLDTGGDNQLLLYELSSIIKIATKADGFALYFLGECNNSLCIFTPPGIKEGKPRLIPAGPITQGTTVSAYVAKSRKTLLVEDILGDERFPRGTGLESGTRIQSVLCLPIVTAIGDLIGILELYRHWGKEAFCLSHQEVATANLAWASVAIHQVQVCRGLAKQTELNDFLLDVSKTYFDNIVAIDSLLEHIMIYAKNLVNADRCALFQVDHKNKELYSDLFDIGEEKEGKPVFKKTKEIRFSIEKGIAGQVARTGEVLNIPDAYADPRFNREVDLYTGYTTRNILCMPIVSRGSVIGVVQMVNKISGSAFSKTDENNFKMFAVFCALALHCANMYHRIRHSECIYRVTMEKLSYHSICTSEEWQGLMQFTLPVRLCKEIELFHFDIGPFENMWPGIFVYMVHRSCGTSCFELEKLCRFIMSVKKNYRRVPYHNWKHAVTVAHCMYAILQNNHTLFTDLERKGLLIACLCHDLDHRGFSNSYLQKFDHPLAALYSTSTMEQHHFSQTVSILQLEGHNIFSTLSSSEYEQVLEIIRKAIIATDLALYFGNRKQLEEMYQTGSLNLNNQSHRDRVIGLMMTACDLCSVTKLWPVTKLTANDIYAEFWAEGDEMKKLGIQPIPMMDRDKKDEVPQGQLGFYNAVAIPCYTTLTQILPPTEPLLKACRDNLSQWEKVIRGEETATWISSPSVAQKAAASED

## Cn1cc(-c2ccncc2)c(-c2ccc(OCc3nc4ccccc4cc3C(=O)O)cc2)n1 [Example 3, 2-[[4-[1-Methyl-4-(4-pyridyl)pyrazol-3-yl]phenoxy]methyl]quinoline-3-carboxylic acid]
Human PDE10A2 [1]
  PDE10A2 Phosphate Sensor Enzyme Assay (pIC50): 10.1
Human PDE10A2 [2]
  IC50: 2.75 nM
[3]
  Kp uu: 0.56

## Cn1cc(-c2ccncc2)c(-c2ccc(OCc3cc(C(=O)O)c4ccccc4n3)cc2)n1 [Example 4, Ammonium 2-[[4-[1-methyl-4-(4-pyridyl)pyrazol-3-yl]phenoxy]methyl]quinoline-4-carboxylate]
Human PDE10A2 [1]
  PDE10A2 Phosphate Sensor Enzyme Assay (pIC50): 10.1
Human PDE10A2 [2]
  IC50: 0.813 nM
[4]
  secreted levels of IL-6: significantly reduce
  secreted levels of IL-8: significantly reduce
[3]
  Kp uu: 0.32

## O=C(O)Cn1cc(-c2ccncc2)c(-c2ccc(OCc3ccc4ccccc4n3)cc2)n1 [Example 5, 2-[4-(4-Pyridyl)-3-[4-(2-quinolylmethoxy)phenyl]pyrazol-1-yl]acetic acid]
Human PDE10A2 [1]
  PDE10A2 Phosphate Sensor Enzyme Assay (pIC50): 9.41
Human PDE10A2 [2]
  IC50: 75.9 nM
[3]
  Kp uu: 0.02

## Cn1cc(-c2ccncc2)c(-c2ccc(OCc3nc4ccccc4cc3C(=O)NS(C)(=O)=O)cc2)n1 [Example 9, 2-[[4-[1-Methyl-4-(4-pyridyl)pyrazol-3-yl]phenoxy]methyl]-N-methylsulfonyl-quinoline-3-carboxamide]
Human PDE10A2 [1]
  PDE10A2 Phosphate Sensor Enzyme Assay (pIC50): 10.1
Human PDE10A2 [2]
  IC50: 1.66 nM
[4]
  secreted levels of IL-6: significantly reduce
  secreted levels of IL-8: significantly reduce
[3]
  Kp uu: 0.37

## Cn1cc(-c2ccncc2)c(-c2ccc(OCc3nc4ccccc4cc3C(=O)N=S(C)(C)=O)cc2)n1 [Example 10, N-[Dimethyl(oxo)-λ6-sulfanylidene]-2-[[4-[1-methyl-4-(4-pyridyl)pyrazol-3-yl]phenoxy]methyl]quinoline-3-carboxamide]
Human PDE10A2 [1]
  PDE10A2 Phosphate Sensor Enzyme Assay (pIC50): 10
Human PDE10A2 [2]
  IC50: 1.1 nM
[4]
  secreted levels of IL-6: significantly reduce
  secreted levels of IL-8: significantly reduce
[3]
  Kp uu: 0.02

## Cn1cc(-c2ccncc2)c(-c2ccc(OCc3cc(C(=O)N=S(C)(C)=O)c4ccccc4n3)cc2)n1 [Example 11, N-[Dimethyl(oxo)-λ6-sulfanylidene]-2-[[4-[1-methyl-4-(4-pyridyl)pyrazol-3-yl]phenoxy]methyl]quinoline-4-carboxamide]
Human PDE10A2 [1]
  PDE10A2 Phosphate Sensor Enzyme Assay (pIC50): 10.1
Human PDE10A2 [2]
  IC50: 1 nM
[4]
  secreted levels of IL-6: significantly reduce
  secreted levels of IL-8: significantly reduce
[3]
  Kp uu: 0.02

## CN(C(=O)c1cc2ccccc2nc1COc1ccc(-c2nn(C)cc2-c2ccncc2)cc1)S(C)(=O)=O [Example 15, N-Methyl-2-[[4-[1-methyl-4-(4-pyridyl)pyrazol-3-yl]phenoxy]methyl]-N-methylsulfonyl-quinoline-3-carboxamide]
Human PDE10A2 [1]
  PDE10A2 Phosphate Sensor Enzyme Assay (pIC50): 9.22
Human PDE10A2 [2]
  IC50: 10.7 nM
[3]
  Kp uu: 0.06

## Cn1cc(-c2ccncc2)c(-c2ccc(OCc3nc(C(=O)N=S(C)(C)=O)c4ccccc4n3)cc2)n1 [Example 17, N-[Dimethyl(oxo)-λ6-sulfanylidene]-2-[[4-[1-methyl-4-(4-pyridyl)pyrazol-3-yl]phenoxy]methyl]quinazoline-4-carboxamide]
Human PDE10A2 [1]
  PDE10A2 Phosphate Sensor Enzyme Assay (pIC50): 9.92
Human PDE10A2 [2]
  IC50: 3.02 nM
[4]
  secreted levels of IL-6: significantly reduce
  secreted levels of IL-8: significantly reduce
[3]
  Kp uu: 0.06

## Cn1cc(-c2ccncc2)c(-c2ccc(OCc3nc4ccccc4nc3C(=O)N=S(C)(C)=O)cc2)n1 [Example 18, N-[Dimethyl(oxo)-λ6-sulfanylidene]-3-[[4-[1-methyl-4-(4-pyridyl)pyrazol-3-yl]phenoxy]methyl]quinoxaline-2-carboxamide]
Human PDE10A2 [1]
  PDE10A2 Phosphate Sensor Enzyme Assay (pIC50): 9.34
Human PDE10A2 [2]
  IC50: 102 nM
[3]
  Kp uu: 0.03

## CS(=N)(=O)c1cc(COc2ccc(-c3n[nH]cc3-c3ccncc3)cc2)nc2ccccc12 (stereo not drawn) [Example 33, Imino-methyl-oxo-[2-[[4-[4-(4-pyridyl)-1H-pyrazol-3-yl]phenoxy]methyl]-4-quinolyl]-λ6-sulfane]
Human PDE10A2 [1]
  PDE10A2 Phosphate Sensor Enzyme Assay (pIC50): 9.32
Human PDE10A2 [2]; [5]
  IC50: 8.91 nM

## Cn1cc(-c2ccncc2)c(-c2ccc(OCc3cc(NS(C)(=O)=O)c4ccccc4n3)cc2)n1 [Example 34, N-[2-[[4-[1-Methyl-4-(4-pyridyl)pyrazol-3-yl]phenoxy]methyl]-4-quinolyl]methanesulfonamide]
Human PDE10A2 [1]
  PDE10A2 Phosphate Sensor Enzyme Assay (pIC50): 9.54
Human PDE10A2 [2]; [5]
  IC50: 1.2 nM

## CNC(=O)Nc1cc(COc2ccc(-c3nn(C)cc3-c3ccncc3)cc2)nc2ccccc12 [Example 35, 1-Methyl-3-[2-[[4-[1-methyl-4-(4-pyridyl)pyrazol-3-yl]phenoxy]methyl]-4-quinolyl]urea]
Human PDE10A2 [1]
  PDE10A2 Phosphate Sensor Enzyme Assay (pIC50): 9.67
Human PDE10A2 [2]; [5]
  IC50: 3.47 nM

## Cn1cc(-c2ccncc2)c(-c2ccc(OCc3cc(NC(=O)N=S(C)(C)=O)c4ccccc4n3)cc2)n1 [Example 36, 1-[Dimethyl(oxo)-λ6-sulfanylidene]-3-[2-[[4-[1-methyl-4-(4-pyridyl)pyrazol-3-yl]phenoxy]methyl]-4-quinolyl]urea]
Human PDE10A2 [1]
  PDE10A2 Phosphate Sensor Enzyme Assay (pIC50): 9.46
Human PDE10A2 [2]; [5]
  IC50: 16.6 nM

## Cn1cc(-c2ccncc2)c(-c2ccc(OCc3nc(N4CCS(=O)(=O)CC4)c4ccccc4n3)cc2)n1 [Example 37, 4-[2-[[4-[1-Methyl-4-(4-pyridyl)pyrazol-3-yl]phenoxy]methyl]quinazolin-4-yl]-1,4-thiazinane 1,1-dioxide]
Human PDE10A2 [1]
  PDE10A2 Phosphate Sensor Enzyme Assay (pIC50): 9.65
Human PDE10A2 [2]; [5]
  IC50: 1.48 nM

## Cn1cc(-c2ccncc2)c(-c2ccc(OCc3nc(N4CCNC(=O)C4)c4ccccc4n3)cc2)n1 [Example 38, 4-[2-[[4-[1-Methyl-4-(4-pyridyl)pyrazol-3-yl]phenoxy]methyl]quinazolin-4-yl]piperazin-2-one]
Human PDE10A2 [1]
  PDE10A2 Phosphate Sensor Enzyme Assay (pIC50): 10.1
Human PDE10A2 [2]; [5]
  IC50: 0.269 nM

## Cn1cc(-c2ccncc2)c(-c2ccc(OCc3nc(N4CC(N)C4)c4ccccc4n3)cc2)n1 [Example 39, 1-[2-[[4-[1-Methyl-4-(4-pyridyl)pyrazol-3-yl]phenoxy]methyl]quinazolin-4-yl]azetidin-3-amine]
Human PDE10A2 [1]
  PDE10A2 Phosphate Sensor Enzyme Assay (pIC50): 9.46
Human PDE10A2 [2]; [5]
  IC50: 24.5 nM

## Cn1cc(-c2ccncc2)c(-c2ccc(OCc3nc(N4CCNCC4)c4ccccc4n3)cc2)n1 [Example 40, 2-[[4-[1-Methyl-4-(4-pyridyl)pyrazol-3-yl]phenoxy]methyl]-4-piperazin-1-yl-quinazoline]
Human PDE10A2 [1]
  PDE10A2 Phosphate Sensor Enzyme Assay (pIC50): 8.98
Human PDE10A2 [2]; [5]
  IC50: 4.57 nM

## Cn1cc(-c2ccncc2)c(-c2ccc(OCc3nc4ccccc4nc3N3CC(N)C3)cc2)n1 [Example 41, 1-[3-[[4-[1-Methyl-4-(4-pyridyl)pyrazol-3-yl]phenoxy]methyl]quinoxalin-2-yl]azetidin-3-amine]
Human PDE10A2 [1]
  PDE10A2 Phosphate Sensor Enzyme Assay (pIC50): 9.45
Human PDE10A2 [2]
  IC50: 7.59 nM

## Cn1cc(-c2ccncc2)c(-c2ccc(OCc3nc4ccccc4nc3N3CCNCC3)cc2)n1 [Example 42, 2-[[4-[1-Methyl-4-(4-pyridyl)pyrazol-3-yl]phenoxy]methyl]-3-piperazin-1-yl-quinoxaline]
Human PDE10A2 [1]
  PDE10A2 Phosphate Sensor Enzyme Assay (pIC50): 8.96
Human PDE10A2 [2]
  IC50: 12.3 nM
